From patent publication US10053463B2 (Janssen Pharmaceutica NV, priority 2013, dated 2018)

Experiments:
[1] = target: T1, P2X7 (Homo sapiens (Human), UniProt Q99572); assay: P2X7 antagonism in human peripheral blood mononuclear cells (PBMCs), IL-1β release; type: cell-based; settings: Table 3 (additional runs); for remaining activity at 10 µM: P2X7, 10 μM compound, read-out: PBMC 10 μM (% control)
In short: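 Ficoll-isolated human PBMCs primed with LPS (30 ng/ml) for 1 h, treated with compound for 30 min, then stimulated with 0.5 mM Bz-ATP for 1.5 h. Supernatant IL-1β measured by ELISA as % of LPS+Bz-ATP minus LPS-only release; IC50 from concentration–response of triplicate means.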

[2] = target: T1, P2X7; assay: Radioligand binding, human P2X7-1321N1 cell membranes, tracer tritiated A-804598; settings: Table 3 (additional runs)
Experimental: P2X7 Antagonism in Recombinant Human P2X7 Cells or Recombinant Rat P2X7 Cells: (a) Ca^2+ Flux and (b) Radioligand Binding
(b) Radioligand Binding: human or rat P2X7-1321N1 cells were collected and frozen @−80° C. On the day of the experiment, cell membrane preparations were made according to standard published methods. The total assay volume was 100 μl:10 μl compound (10×)+(b) 40 μl tracer (2.5×)+50 μl membrane (2×). The tracer used for the assay was tritiated A-804598. The compound can be prepared as described in the literature. (Donnelly-Roberts, D. Neuropharmacology 2008, 56 (1), 223-229.) Compounds, tracer and membranes were incubated for 1 hour @ 4° C. The assay was terminated by filtration (GF/B filters pre-soaked with 0.3% PEI) and washed with washing buffer (Tris-HCl 50 mM). The IC50 generated in the binding assay was corrected for tracer concentration and affinity of the tracer to derive at the affinity (K) of the test compounds. […] Data are analyzed and graphed on Graphpad Prism 5. For analysis, each concentration point is averaged from triplicate values and the averaged values are plotted on Graphpad Prism.

T1 sequence (Q99572 whole entry): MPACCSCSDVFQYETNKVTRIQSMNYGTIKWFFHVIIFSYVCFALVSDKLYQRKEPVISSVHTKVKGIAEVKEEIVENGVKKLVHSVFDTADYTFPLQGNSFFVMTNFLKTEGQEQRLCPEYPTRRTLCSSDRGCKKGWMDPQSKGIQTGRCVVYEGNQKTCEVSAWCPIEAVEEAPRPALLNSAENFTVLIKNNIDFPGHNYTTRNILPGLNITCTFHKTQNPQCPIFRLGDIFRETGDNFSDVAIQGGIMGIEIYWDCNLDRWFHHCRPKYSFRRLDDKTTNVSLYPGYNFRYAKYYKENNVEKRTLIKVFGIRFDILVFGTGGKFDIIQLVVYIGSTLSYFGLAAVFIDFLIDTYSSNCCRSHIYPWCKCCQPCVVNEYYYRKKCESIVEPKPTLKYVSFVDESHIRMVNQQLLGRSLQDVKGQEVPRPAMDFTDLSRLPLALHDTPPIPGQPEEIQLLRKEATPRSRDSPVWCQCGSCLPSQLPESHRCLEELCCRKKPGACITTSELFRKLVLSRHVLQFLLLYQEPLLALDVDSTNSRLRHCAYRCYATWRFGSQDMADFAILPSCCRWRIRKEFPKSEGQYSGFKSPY

Structure (SMILES)	remaining activity at 10 µM [1] [%]	Ki [2] [nM]	PBMC 1 μM (% control) ([1]; 1 μM compound)
C[C@H]1Cn2c(-c3ccccn3)nnc2-c2nnc(-c3cccc(C(F)(F)F)c3Cl)n21 [Example 124, (S)-3-(2-chloro-3-(trifluoromethyl)phenyl)-5-methyl-8-(pyridin-2-yl)-5,6-dihydrobis([1,2,4]triazolo)[4,3-a:3′,4′-c]pyrazine]	-4.2	3.6	
Cc1ccnc(-c2nnc3n2C[C@H](C)n2c(-c4cccc(C(F)(F)F)c4Cl)nnc2-3)c1 [Example 125, (S)-3-(2-chloro-3-(trifluoromethyl)phenyl)-5-methyl-8-(4-methylpyridin-2-yl)-5,6-dihydrobis([1,2,4]triazolo)[4,3-a:3′,4′-c]pyrazine]	28.5	10.5	
C[C@H]1Cn2c(-c3ccc(F)cn3)nnc2-c2nnc(-c3cccc(Cl)c3Cl)n21 [Example 126, (S)-3-(2,3-dichlorophenyl)-8-(5-fluoropyridin-2-yl)-5-methyl-5,6-dihydrobis([1,2,4]triazolo)[4,3-a:3′,4′-c]pyrazine]	-0.5	12.6	
C[C@H]1Cn2c(-c3ccc(F)cn3)nnc2-c2nnc(-c3ccc(Cl)cc3Cl)n21 [Example 127, (S)-3-(2,4-dichlorophenyl)-8-(5-fluoropyridin-2-yl)-5-methyl-5,6-dihydrobis([1,2,4]triazolo)[4,3-a:3′,4′-c]pyrazine]	0.1	10	
Cc1c(-c2nnc3n2[C@@H](C)Cn2c(-c4ccc(F)cn4)nnc2-3)cccc1C(F)(F)F [Example 128, (S)-8-(5-fluoropyridin-2-yl)-5-methyl-3-(2-methyl-3-(trifluoromethyl)phenyl)-5,6-dihydrobis([1,2,4]triazolo)[4,3-a:3′,4′-c]pyrazine]	3.8	6.3	
COc1ccnc(-c2nnc3n2C[C@H](C)n2c(-c4cccc(Cl)c4Cl)nnc2-3)c1 [Example 129, (S)-3-(2,3-dichlorophenyl)-8-(4-methoxypyridin-2-yl)-5-methyl-5,6-dihydrobis([1,2,4]triazolo)[4,3-a:3′,4′-c]pyrazine]	-0.2	10	
COc1ccnc(-c2nnc3n2C[C@H](C)n2c(-c4ccc(Cl)cc4Cl)nnc2-3)c1 [Example 130, (S)-3-(2,4-dichlorophenyl)-8-(4-methoxypyridin-2-yl)-5-methyl-5,6-dihydrobis([1,2,4]triazolo)[4,3-a:3′,4′-c]pyrazine]	-0.7	6.3	
COc1ccnc(-c2nnc3n2C[C@H](C)n2c(-c4cccc(C(F)(F)F)c4C)nnc2-3)c1 [Example 131, (S)-8-(4-methoxypyridin-2-yl)-5-methyl-3-(2-methyl-3-(trifluoromethyl)phenyl)-5,6-dihydrobis([1,2,4]triazolo)[4,3-a:3′,4′-c]pyrazine]	0.7	5	
FC(F)(F)c1cccc(-c2nnc3n2CCn2c(-c4cnccn4)nnc2-3)c1Cl [Example 132, 3-[2-Chloro-3-(trifluoromethyl)phenyl]-8-pyrazin-2-yl-5,6-dihydrobis[1,2,4]triazolo[4,3-a:3′,4′-c]pyrazine]		28.2	50.7
